Test results from patent US20110178104A1, “Anti-Heparin Compounds” (POLYMEDIX INC., priority 2010, published 2011).
Read-outs that look alike come from different tables or passages of the source. Starred links: 1 amine or outer side, 2 acyl side, 3 side chain; linkers in the order of their positions; H or OH if unused. Non-standard residues stand in square brackets, D forms with d. Residues, ends and D or L forms follow the SMILES beside them. *: point of attachment. NH(3-CONH2-4-OMe-phenyl) = COc1ccc(N*)cc1C(N)=O; 3Abz(6-OMe) = COc1ccc(N[*:1])cc1C(=O)[*:2]; dOrn = NCCC[C@@H](N)C(=O)O

Key:
[1] = tested on: unfractionated heparin (UFH); test: aPTT clotting assay, UFH 0.2 U/mL in plasma (Example 7); type: biochemical
Description: aPTT clotting Assay. Unfractionated heparin was mixed with plasma at a final concentration of 0.2 U/mL. […] The ACL Elite Hemostasis analyzer (Beckman Coulter™) was used to add aPTT reagent (HemosIL SynthASil) to supplemented plasma. Clotting was initiated by addition of CaCl2 and time to clot was recorded.

[2] = tested on: fondaparinux (FONDAPX); test: FXa chromogenic assay (absence of plasma), fondaparinux
[3] = tested on: enoxaparin (ENOX); test: FXa chromogenic assay (absence of plasma), enoxaparin
[4] = fondaparinux 0.02 μg/mL, absence of plasma
[5] = enoxaparin 0.1 μg/mL, absence of plasma

SMILES	UFH (aPTT) EC50 ([1]; UFH 0.2 U/mL in plasma)	FONDAPX (FXa) EC50 [2, 4]	ENOX (FXa) EC50 [3, 5]	UFH (aPTT) EC50 [1]	FONDAPX (FXa) EC50 [2]	ENOX (FXa) EC50 [3]
COc1ccc(NC(=O)[C@@H](CCCCN)NC(=O)c2cc(NC(=O)[C@@H](CCCCN)NC(=O)c3cc(NC(=O)[C@@H](CCCCN)NC(=O)c4cc(NC(=O)[C@H](N)CCCCN)ccc4OC)ccc3OC)ccc2OC)cc1C(N)=O [Compound 17]	2.33 µg/mL	11.15 µg/mL	0.50 µg/mL			
N=C(N)NCCCCC(=O)Nc1cc(C(F)(F)F)cc(NC(=O)c2ccc(C(=O)Nc3cc(C(F)(F)F)cc(NC(=O)CCCCNC(=N)N)c3SCCN)cc2)c1SCCN [Compound 87]	>10 µg/mL	15.91 µg/mL	6.35 µg/mL			
CNc1cccc(C(=O)N[C@@H](CCCCN)C(=O)Nc2ccc(OC)c(C(=O)N[C@@H](CCCCN)C(=O)Nc3ccc(OC)c(C(=O)N[C@@H](CCCCN)C(=O)Nc4ccc(OC)c(C(N)=O)c4)c3)c2)c1 [Compound 128]	4.17 µg/mL	8.495 µg/mL	1.651 µg/mL			
COc1ccc(NC(=O)[C@@H](CCCN)NC(=O)[C@@H](CCCN)NC(=O)c2cc(NC(=O)[C@@H](CCCN)NC(=O)c3cc(NC(=O)[C@@H](CCCNC(=N)N)NC(=O)c4cc(NC(=O)[C@H](N)CCCN)ccc4OC)ccc3OC)ccc2OC)cc1C(N)=O [Compound 46] (H-[dOrn][3Abz(6-OMe)][dR][3Abz(6-OMe)][dOrn][3Abz(6-OMe)][dOrn][dOrn]-{NH(3-CONH2-4-OMe-phenyl)})	inactive	76.88 µg/mL	13.76 µg/mL			
COc1cc(OC)c(C(=O)N[C@H]2CC[C@@H](NC(=O)c3cc(C(=O)NCCN(C)C)c(OCCNC(=N)N)cc3OCCNC(=N)N)CC2)cc1C(=O)N[C@H]1CC[C@@H](NC(=O)c2cc(C(=O)NCCN(C)C)c(OCCNC(=N)N)cc2OCCNC(=N)N)CC1 [Compound 105]	Inactive	>20 µg/mL	2.07 µg/mL			
COc1ccc(NC(=O)[C@H](CCCNC(=N)N)NC(=O)c2cc(NC(=O)[C@H](CCCNC(=N)N)NC(=O)c3cc(NC(=O)[C@H](C)NC(=O)CCCCNC(=N)N)ccc3OC)ccc2OC)cc1C(N)=O [Compound 120]	9.62 µg/mL	5.96 µg/mL	1.36 µg/mL			
COc1ccc(NC(=O)[C@H](CCCCN)NC(=O)c2cc(NC(=O)[C@H](CCCCN)NC(=O)c3cc(NC(=O)[C@H](CCCCN)NC(=O)c4cc(NC(=O)[C@@H](N)CCCCN)ccc4OC)ccc3SC)ccc2OC)cc1C(N)=O [Compound 132]	>10 µg/mL	inactive	>20 µg/mL			
COC(=O)c1cc(NC(=O)[C@H](CCCCN)NC(=O)c2cc(NC(=O)[C@H](CCCCN)NC(=O)c3cc(NC(=O)[C@H](CCCCN)NC(=O)c4cc(NC(=O)[C@@H](N)CCCCN)ccc4OC)ccc3OC)ccc2OC)ccc1OC [Compound 115]	2.44 µg/mL	>20 µg/mL	0.7967 µg/mL			
COc1ccc(NC(=O)[C@@H](CCCNC(=N)N)NC(=O)c2cc(NC(=O)[C@@H](CCCNC(=N)N)NC(=O)c3cc(NC(=O)[C@H](C)NC(=O)[C@@H](CCCNC(=N)N)NC(=O)c4cc(NC(=O)[C@H](N)CCCNC(=N)N)ccc4OC)ccc3OC)ccc2OC)cc1C(N)=O [Compound 73] (H-[dR][3Abz(6-OMe)][dR]A[3Abz(6-OMe)][dR][3Abz(6-OMe)][dR]-{NH(3-CONH2-4-OMe-phenyl)})	5.16 µg/mL	17.92 µg/mL	2.49 µg/mL			
COc1ccc(NC(=O)[C@H](CCCCN)NC(=O)c2cc(NC(=O)[C@H](CCCCN)NC(=O)c3cc(NC(=O)[C@H](CCCCN)NC(=O)c4c[nH]c5ccccc45)ccc3OC)ccc2OC)cc1C(N)=O [Compound 100]	7.13 µg/mL	2.482 µg/mL	1.12 µg/mL			
COc1ccc(NC(=O)[C@@H](C)NC(=O)CCCCNC(=N)N)cc1C(=O)N[C@H](CCCNC(=N)N)C(=O)Nc1ccc(OC)c(C(=O)N[C@H](CCCNC(=N)N)C(=O)Nc2ccc(OC)c(C(=O)N[C@H](CCCNC(=N)N)C(=O)Nc3ccc(OCCNC(=N)N)c(C(N)=O)c3)c2)c1 [Compound 44]	2.38 µg/mL	2.91 µg/mL	0.21 µg/mL			
COc1ccc(NC(=O)[C@H](CCCCN)NC(=O)c2cc(NC(=O)[C@H](CCCCN)NC(=O)c3cc(NC(=O)[C@H](CCCCN)NC(=O)c4cc(NC(=O)[C@@H](N)CCCCN)ccc4OC)ccc3OC)ccc2OC)cc1C(=O)Nc1cccc(C(=O)O)c1 [Compound 144]	3.13 µg/mL	1.051 µg/mL	0.244 µg/mL			
COc1ccc(NC(=O)[C@H](CCCCN)NC(=O)c2cc(NC(=O)[C@H](CCCCN)NC(=O)c3cc(NC(=O)[C@H](CCCCN)NC(=O)c4cccc(NC(=O)[C@@H](N)CCCCN)c4)ccc3OC)ccc2OC)cc1C(N)=O [Compound 91]	2.03 µg/mL	13.11 µg/mL	0.58 µg/mL			
COc1ccc(NC(=O)[C@H](N)CCCNC(=N)N)cc1C(=O)N[C@H](CCCNC(=N)N)C(=O)Nc1ccc(OC)c(C(=O)N[C@H](CCCNC(=N)N)C(=O)Nc2ccc(OC)c(C(=O)N[C@H](CCCNC(=N)N)C(=O)Nc3cccc(C(N)=O)c3)c2)c1 [Compound 67]	1.75 µg/mL	5.19 µg/mL	0.33 µg/mL			
COc1ccc(NC(=O)[C@H](CCCNC(=N)N)NC(=O)c2cc(NC(=O)[C@H](CCCNC(=N)N)NC(=O)c3cc(NC(=O)[C@H](CCCNC(=N)N)NC(=O)c4cc(NC(=O)[C@@H](N)CCCNC(=N)N)ccc4OC)ccc3OC)ccc2OC)cc1C(N)=O [Compound 45]	2.35 µg/mL	2.61 µg/mL	0.23 µg/mL			
COc1ccc(NC(=O)[C@H](CCCCN)NC(=O)c2cc(NC(=O)[C@H](CCCCN)NC(=O)c3cc(NC(=O)[C@H](CCCCN)NC(=O)c4ccc(NC(=O)[C@@H](N)CCCCN)cc4)ccc3OC)ccc2OC)cc1C(N)=O [Compound 126]	9.07 µg/mL	>20 µg/mL	0.7187 µg/mL			
COc1ccc(NC(=O)[C@H](CCCCN)NC(=O)c2cc(NC(=O)[C@H](CCCCN)NC(=O)c3cc(NC(=O)[C@H](C)NC(=O)c4cc(NC(=O)[C@@H](N)CCCCN)ccc4OC)ccc3OC)ccc2OC)cc1C(N)=O [Compound 77]	4.55 µg/mL	2.47 µg/mL	0.61 µg/mL			
COc1ccc(NC(=O)[C@H](CCCCN)NC(=O)c2cc(NC(=O)[C@H](CCCCN)NC(=O)c3cc(NC(=O)[C@H](CCCCN)NC(=O)c4cc(NC(=O)[C@@H](N)CCCCN)ccc4OC)ccc3OC)ccc2OCC(=O)O)cc1C(N)=O [Compound 117]	1.94 µg/mL	7.052 µg/mL	0.9281 µg/mL			
COc1ccc(NC(=O)[C@@H](CCCN)NC(=O)c2cc(NC(=O)[C@@H](CCCNC(=N)N)NC(=O)c3cc(NC(=O)[C@@H](CCCNC(=N)N)NC(=O)c4cc(NC(=O)CCCCN)ccc4OC)ccc3OC)ccc2OC)cc1C(N)=O [Compound 48]	1.72 µg/mL	3.35 µg/mL	0.30 µg/mL			
COc1ccc(NC(=O)[C@H](CCCCN)NC(=O)c2cc(NC(=O)[C@H](CCCCN)NC(=O)c3cc(NC(=O)[C@H](CCCCN)NC(=O)c4cc(NC(=O)[C@@H](N)CCCCN)ccc4OCC(=O)O)ccc3OC)ccc2OC)cc1C(N)=O [Compound 119]	11.56 µg/mL	13.39 µg/mL	0.9421 µg/mL			
COc1ccc(NC(=O)[C@H](CCCNC(=N)N)NC(=O)c2cc(NC(=O)[C@H](CCCCN)NC(=O)c3cc(NC(=O)[C@H](CCCCN)NC(=O)c4cc(NC(=O)[C@@H](N)CCCCN)ccc4OC)ccc3OC)ccc2OC)cc1C(N)=O [Compound 78]	2.99 µg/mL	6.28 µg/mL	0.49 µg/mL			
COc1cc(OC)c(C(=O)Nc2cc(C(F)(F)F)cc(NC(=O)CCCCNC(=N)N)c2SCCN)cc1C(=O)Nc1cc(C(F)(F)F)cc(NC(=O)CCCCNC(=N)N)c1SCCN [Compound 1]	inactive	inactive	0.18 µg/mL			
COc1ccc(NC(=O)[C@H](CCCCN)NC(=O)c2cc(NC(=O)[C@H](CCCCN)NC(=O)c3cc(NC(=O)[C@H](CCCCN)NC(=O)c4cc(NC(=O)[C@@H](N)CCCCN)ccc4OC)ccc3OC)ccc2OC)cc1C(=O)N[C@@H](CCCNC(N)=O)C(=O)O [Compound 142]	2.88 µg/mL	7.045 µg/mL	0.592 µg/mL			
COc1ccc(NC(=O)[C@@H](CCCNC(=N)N)NC(=O)c2cccc(NC(=O)[C@@H](CCCNC(=N)N)NC(=O)c3cc(NC(=O)[C@@H](CCCNC(=N)N)NC(=O)c4cc(NC(=O)[C@H](N)CCCNC(=N)N)ccc4OC)ccc3OC)c2)cc1C(N)=O [Compound 68]	1.99 µg/mL	4.26 µg/mL	0.29 µg/mL			
COc1ccc(NC(=O)[C@@H](CCCN)NC(=O)c2cc(NC(=O)[C@@H](CCCNC(=N)N)NC(=O)c3cc(NC(=O)[C@@H](CCCN)NC(=O)c4cc(NC(=O)[C@H](N)CCCNC(=N)N)ccc4OC)ccc3OC)ccc2OC)cc1C(N)=O [Compound 39]				3.07 µg/mL	17.09 µg/mL	1.11 µg/mL
COc1ccc(NC(=O)[C@@H](CCCNC(=N)N)NC(=O)c2cc(NC(=O)[C@@H](CCCNC(=N)N)NC(=O)c3cc(NC(=O)[C@@H](CCCNC(=N)N)NC(=O)c4cc(NC(=O)[C@H](N)CC(N)=O)ccc4OC)ccc3OC)ccc2OC)cc1C(N)=O [Compound 72]	2.11 µg/mL	1.22 µg/mL	0.22 µg/mL			
